#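 Method: 48-hour compound exposure of cells in 96-well plates, five concentrations, linear interpolation of endpoints. GI50: concentration for 50% inhibition of growth.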 Calls of active or inactive are those of the source. Rule as the data show it: active = GI50 up to about 1.1 µM and inactive = higher.
# Legend:
# Test in all cases: NCI tumour cell line growth inhibition, 48 h
# HOP-92 = test system: HOP-92
# M14 = test system: M14
# IGROV-1 = test system: IGROV-1
# SK-MEL-5 = test system: SK-MEL-5
# T47D = test system: T47D
# U-251 = test system: U-251
# NCI/ADR-RES = test system: NCI/ADR-RES
# A549 = test system: A549
# RPMI-8226 = test system: RPMI-8226
# TK-10 = test system: TK-10
# RXF 393 = test system: RXF 393
# Hs-578T = test system: Hs-578T
# HCT-116 = test system: HCT-116
# UO-31 = test system: UO-31
# 786-0 = test system: 786-0
# HCC 2998 = test system: HCC 2998
# CAKI-1 = test system: CAKI-1
# SNB-75 = test system: SNB-75
# NCI-H226 = test system: NCI-H226
# OVCAR-4 = test system: OVCAR-4
SMILES,GI50 (HOP-92),GI50 (M14),GI50 (IGROV-1),GI50 (SK-MEL-5),GI50 (T47D),GI50 (U-251),GI50 (NCI/ADR-RES),GI50 (A549),GI50 (RPMI-8226),GI50 (TK-10),GI50 (RXF 393),GI50 (Hs-578T),GI50 (HCT-116),GI50 (UO-31),GI50 (786-0),GI50 (HCC 2998),GI50 (CAKI-1),GI50 (SNB-75),GI50 (NCI-H226),GI50 (OVCAR-4)
O=C(O)C1C(C(=O)O)C2C(=O)C=CC1N2Cc1ccccc1 (stereo not given),9.55 µM (inactive),2.25 µM (inactive),6.5 µM (inactive),5.32 µM (inactive),3.46 µM (inactive),3.52 µM (inactive),2.3 µM (inactive),6.71 µM (inactive),2.96 µM (inactive),2.84 µM (inactive),2.72 µM (inactive),2.82 µM (inactive),3.68 µM (inactive),1.71 µM (inactive),2.49 µM (inactive),2.8 µM (inactive),3.94 µM (inactive),2.65 µM (inactive),16 µM (inactive),4.32 µM (inactive)
N#Cc1c(N2CCCC2)ncn(Cc2ccccc2)c1=O,> 100 µM (inactive),> 100 µM (inactive),> 100 µM (inactive),> 100 µM (inactive),> 100 µM (inactive),> 100 µM (inactive),> 100 µM (inactive),> 100 µM (inactive),> 100 µM (inactive),> 100 µM (inactive),> 100 µM (inactive),> 100 µM (inactive),> 100 µM (inactive),> 100 µM (inactive),> 100 µM (inactive),> 100 µM (inactive),,> 100 µM (inactive),> 100 µM (inactive),> 100 µM (inactive)
O=C(/C=C/c1cc2ccccc2o1)N1CCN(c2ccccn2)CC1,60.5 µM (inactive),71.6 µM (inactive),84.1 µM (inactive),> 100 µM (inactive),44.3 µM (inactive),> 100 µM (inactive),60.7 µM (inactive),> 100 µM (inactive),> 100 µM (inactive),79.6 µM (inactive),> 100 µM (inactive),> 100 µM (inactive),85.3 µM (inactive),40.9 µM (inactive),> 100 µM (inactive),> 100 µM (inactive),> 100 µM (inactive),,,49.8 µM (inactive)
COc1ccc([C@H]2[C@H]3COC(=O)[C@H]3C(C#N)=C3Sc4ccccc4N32)cc1,85.1 µM (inactive),56.5 µM (inactive),,21.1 µM (inactive),8.89 µM (inactive),24.6 µM (inactive),15.5 µM (inactive),30.5 µM (inactive),20.7 µM (inactive),40.6 µM (inactive),3.11 µM (inactive),31.1 µM (inactive),21.7 µM (inactive),23.4 µM (inactive),36.7 µM (inactive),44.3 µM (inactive),21.7 µM (inactive),9.64 µM (inactive),33.1 µM (inactive),33.7 µM (inactive)
O=C(CCc1cc(O)ccc1O)OCCc1ccccc1,2.96 µM (inactive),23.4 µM (inactive),12.7 µM (inactive),22.2 µM (inactive),16.4 µM (inactive),13.6 µM (inactive),19.1 µM (inactive),> 100 µM (inactive),0.875 µM (active),14.7 µM (inactive),11.7 µM (inactive),16.1 µM (inactive),13 µM (inactive),4.6 µM (inactive),9.53 µM (inactive),47.2 µM (inactive),7.66 µM (inactive),> 64.1 µM (inactive),> 28.3 µM (inactive),1.49 µM (inactive)
C(=N/Nc1ccc(-c2nc3ccccc3[nH]2)cc1)/c1c(-c2ccccc2)[nH]c2ccccc12,> 100 µM (inactive),0.215 µM (active),0.728 µM (active),0.311 µM (active),28.8 µM (inactive),0.322 µM (active),0.286 µM (active),,0.268 µM (active),0.766 µM (active),1.6 µM (inactive),0.267 µM (active),0.424 µM (active),0.405 µM (active),0.465 µM (active),0.168 µM (active),0.53 µM (active),0.703 µM (active),0.408 µM (active),2.78 µM (inactive)
CCN(CC)/[N+]([O-])=N/OCOC(C)=O,> 100 µM (inactive),> 100 µM (inactive),> 100 µM (inactive),> 100 µM (inactive),> 100 µM (inactive),> 100 µM (inactive),> 100 µM (inactive),> 100 µM (inactive),> 100 µM (inactive),> 100 µM (inactive),> 100 µM (inactive),> 100 µM (inactive),> 100 µM (inactive),> 100 µM (inactive),> 100 µM (inactive),> 100 µM (inactive),> 100 µM (inactive),> 100 µM (inactive),> 100 µM (inactive),> 100 µM (inactive)
CC1(C)O[C@@H]2[C@@H](COC(=O)c3ccccc3)C[C@@H](C#N)[C@@H]2O1,> 100 µM (inactive),> 100 µM (inactive),> 100 µM (inactive),> 100 µM (inactive),> 100 µM (inactive),> 100 µM (inactive),> 100 µM (inactive),> 100 µM (inactive),> 100 µM (inactive),> 100 µM (inactive),> 100 µM (inactive),29.2 µM (inactive),> 100 µM (inactive),> 100 µM (inactive),> 100 µM (inactive),> 100 µM (inactive),,> 100 µM (inactive),> 100 µM (inactive),> 100 µM (inactive)
COC1C=COC2(C)Oc3c(C)c(O)c4c(O)c(c(C5SCCS5)c(O)c4c3C2=O)NC(=O)C(C)=C/C=C\C(C)C2OC(C)(C)OC(C2C)C(C)C(OC(C)=O)C1C (stereo not given),5.55 µM (inactive),9.31 µM (inactive),6.56 µM (inactive),3.77 µM (inactive),70.6 µM (inactive),4.78 µM (inactive),11.6 µM (inactive),3.66 µM (inactive),4.57 µM (inactive),6.41 µM (inactive),7.21 µM (inactive),15.8 µM (inactive),5.05 µM (inactive),7.41 µM (inactive),10.1 µM (inactive),5.15 µM (inactive),6.12 µM (inactive),42.3 µM (inactive),6.71 µM (inactive),6.07 µM (inactive)
CCCCCCCCCCCCCCCCCCNc1ccn(C2OC(COP(=O)(O)O)C(O)C2O)c(=O)n1 (stereo not given),> 100 µM (inactive),> 100 µM (inactive),> 100 µM (inactive),> 100 µM (inactive),> 100 µM (inactive),> 100 µM (inactive),> 100 µM (inactive),> 100 µM (inactive),> 100 µM (inactive),> 100 µM (inactive),> 100 µM (inactive),> 100 µM (inactive),> 100 µM (inactive),> 100 µM (inactive),> 100 µM (inactive),> 100 µM (inactive),> 100 µM (inactive),> 100 µM (inactive),> 100 µM (inactive),> 100 µM (inactive)
N#CC(c1cc2c(cc1Br)OCO2)N1CCOCC1 (stereo not given),> 100 µM (inactive),20.6 µM (inactive),58.1 µM (inactive),26.1 µM (inactive),> 100 µM (inactive),,27.1 µM (inactive),> 100 µM (inactive),20.3 µM (inactive),90.8 µM (inactive),19.9 µM (inactive),25.6 µM (inactive),6.5 µM (inactive),71.4 µM (inactive),36.4 µM (inactive),> 100 µM (inactive),> 100 µM (inactive),30.1 µM (inactive),61.5 µM (inactive),> 100 µM (inactive)
C=CCNC(=O)NC1=CSC2=NC(=O)C3(NN12)c1ccccc1-c1ccccc13,> 10 µM (inactive),> 10 µM (inactive),> 10 µM (inactive),> 10 µM (inactive),> 10 µM (inactive),,> 10 µM (inactive),> 10 µM (inactive),> 10 µM (inactive),> 10 µM (inactive),> 10 µM (inactive),4.16 µM (inactive),> 10 µM (inactive),8.24 µM (inactive),> 10 µM (inactive),> 10 µM (inactive),> 10 µM (inactive),> 10 µM (inactive),> 10 µM (inactive),> 10 µM (inactive)
CC(=O)O[C@H]1C(=O)[C@@]2(C)[C@H]([C@H](OC(=O)c3ccccc3)[C@]3(O)C[C@H](OC(=O)[C@H](O)[C@@H](NC(=O)c4ccccc4)C4CCCCC4)C(C)=C1C3(C)C)[C@]1(OC(C)=O)CO[C@@H]1C[C@@H]2O,< 0.0174 µM (active),< 0.01 µM (active),< 0.01 µM (active),< 0.01 µM (active),< 0.01 µM (active),< 0.01 µM (active),2.96 µM (inactive),< 0.0173 µM (active),< 0.01 µM (active),0.0352 µM (active),< 0.01 µM (active),< 0.01 µM (active),< 0.01 µM (active),0.313 µM (active),< 0.01 µM (active),< 0.01 µM (active),0.409 µM (active),,< 0.01 µM (active),0.0227 µM (active)
CN(Cc1cc(Cl)c(Cl)cc1NC(=O)CN)[C@H]1CCCC[C@@H]1N1CCCC1,> 100 µM (inactive),17.1 µM (inactive),66.2 µM (inactive),17.7 µM (inactive),38.6 µM (inactive),5.2 µM (inactive),> 100 µM (inactive),38.3 µM (inactive),,28.1 µM (inactive),> 100 µM (inactive),24.9 µM (inactive),20.8 µM (inactive),20.7 µM (inactive),17.1 µM (inactive),17.2 µM (inactive),92.7 µM (inactive),> 100 µM (inactive),66.4 µM (inactive),> 100 µM (inactive)
